Assay results taken from patent US9382254B2, “Compounds and pharmaceutical compositions thereof for the treatment of cystic fibrosis” (Galapagos NV, priority 2013, dated 2016).

molecular target: T1, CFTR ΔF508 mutant (Homo sapiens, UniProt P13569, DEL508-508); experiment: YFP-halide influx assay for the CFTR-ΔF508 mutation, gluconate buffer; format: cell-based; conditions: CFBE41o- cells, forskolin 10.67 μM
T1 construct: expressed in transfected cells; host or cells: CFBE41o- (adenoviral transduction)
Source text: The YFP halide influx assay measures the functionality of the cystic fibrosis Transmembrane Conductance regulator (CFTR) channels in the cystic fibrosis bronchial epithelium cell line CFBE41o-. The assay is used to evaluate the capacity of compounds to increase the open probability of existing CFTR channels in the membrane. It makes use of the observation that the yellow fluorescent protein (YFP) variant YFP H148Q, I152L has its fluorescence substantially quenched by halide ions like Cl^− and I^−. (Galietta, Haggie, & Verkman, 2001) (Nagai, et al., 2002)
For this purpose, CFBE41o-cells are seeded in 96 well plates (6000 CFBE cells/well). One day after seeding, the CFBE cells are transduced with adenoviral vectors that direct the expression of the CFTR ΔF508 mutant and of the YFP reporter. Cells are incubated at 27° C., 5% CO2 for 24 hours so as to allow for the proper folding and migration to the membrane of the CFTR channel or treated with a CFTR modulator during 24 hours at 37° C.
The I^−-induced quenching of fluorescence is recorded immediately after injection of I^− for 7 seconds. The capacity of a compound to increase the channel opening is directly correlated with the decrease in fluorescence, and is expressed as (1-(fluorescence after 7 seconds (F)/fluorescence before injection (F0))) and an EC50 can be derived from a (1-F/F0) vs compound concentration plot.

T1 sequence (P13569 with tags, fused parts or gaps DEL508-508): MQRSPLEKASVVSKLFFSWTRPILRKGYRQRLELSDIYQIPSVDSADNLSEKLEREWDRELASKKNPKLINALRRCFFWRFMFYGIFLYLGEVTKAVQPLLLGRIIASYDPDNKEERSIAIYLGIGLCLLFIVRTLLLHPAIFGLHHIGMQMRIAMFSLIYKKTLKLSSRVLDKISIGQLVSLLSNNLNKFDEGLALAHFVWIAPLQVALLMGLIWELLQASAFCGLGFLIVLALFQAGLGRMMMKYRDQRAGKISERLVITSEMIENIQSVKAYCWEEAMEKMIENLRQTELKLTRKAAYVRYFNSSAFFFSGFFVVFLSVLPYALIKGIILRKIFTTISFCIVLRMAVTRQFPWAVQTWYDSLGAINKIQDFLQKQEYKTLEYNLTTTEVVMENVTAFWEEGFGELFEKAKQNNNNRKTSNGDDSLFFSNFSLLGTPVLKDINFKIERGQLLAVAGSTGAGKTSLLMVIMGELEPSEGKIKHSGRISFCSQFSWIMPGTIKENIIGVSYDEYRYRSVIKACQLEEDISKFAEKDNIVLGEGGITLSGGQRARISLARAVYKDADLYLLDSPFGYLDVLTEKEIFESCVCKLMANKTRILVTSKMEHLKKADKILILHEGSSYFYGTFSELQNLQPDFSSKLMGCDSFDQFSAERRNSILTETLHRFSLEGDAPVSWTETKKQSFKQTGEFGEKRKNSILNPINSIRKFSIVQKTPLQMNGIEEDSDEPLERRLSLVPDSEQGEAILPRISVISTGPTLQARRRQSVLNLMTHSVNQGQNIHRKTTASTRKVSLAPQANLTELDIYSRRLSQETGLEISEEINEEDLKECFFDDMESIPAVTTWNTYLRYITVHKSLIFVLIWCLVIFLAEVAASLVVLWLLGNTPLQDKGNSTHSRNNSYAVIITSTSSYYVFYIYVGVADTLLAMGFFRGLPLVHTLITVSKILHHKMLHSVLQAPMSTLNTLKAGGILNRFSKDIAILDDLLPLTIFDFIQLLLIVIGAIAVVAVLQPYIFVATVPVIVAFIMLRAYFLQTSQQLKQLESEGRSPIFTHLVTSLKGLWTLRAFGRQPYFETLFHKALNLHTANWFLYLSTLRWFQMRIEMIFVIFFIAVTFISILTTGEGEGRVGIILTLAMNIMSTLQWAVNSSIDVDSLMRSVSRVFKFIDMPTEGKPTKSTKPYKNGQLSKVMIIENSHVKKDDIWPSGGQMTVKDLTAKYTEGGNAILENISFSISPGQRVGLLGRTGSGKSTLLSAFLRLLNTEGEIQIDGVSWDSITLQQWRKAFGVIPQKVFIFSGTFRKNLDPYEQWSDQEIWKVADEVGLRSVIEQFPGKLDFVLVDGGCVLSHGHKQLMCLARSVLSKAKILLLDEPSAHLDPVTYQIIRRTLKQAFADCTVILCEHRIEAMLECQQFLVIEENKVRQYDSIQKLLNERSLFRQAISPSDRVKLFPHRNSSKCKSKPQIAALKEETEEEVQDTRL

Going from NC(=O)c1cc(S(=O)(=O)N2CCCCC2)sc1NC(=O)C1CCC(F)(F)CC1 [Compound 37, 2-(4,4-difluorocyclohexanecarboxamide)-5-(piperidin-1-ylsulfonyl) thiophene-3-carboxamide] to NC(=O)c1cc(S(=O)(=O)N2CCCCC2)sc1NC(=O)C1CC1 [Compound 42, 2-(cyclopropanecarboxamido)-5-(piperidin-1-ylsulfonyl) thiophene-3-carboxamide], the EC50 rises from 293 nM to 739 nM (2.5-fold).

Going from NC(=O)c1cc(S(=O)(=O)N2CCCCC2)sc1NC(=O)C1(C(F)(F)F)CC1 [Compound 38, 5-(piperidin-1-ylsulfonyl)-2-(1-(trifluoromethyl)cyclopropanecarboxamido) thiophene-3-carboxamide] to N#CC1(C(=O)Nc2sc(S(=O)(=O)N3CCCCC3)cc2C(N)=O)CC1 [Compound 58, 2-(1-cyanocyclopropanecarboxamido)-5-(piperidin-1-ylsulfonyl) thiophene-3-carboxamide], the EC50 rises from 900 nM to 3330 nM (3.7-fold).

Going from NC(=O)c1cc(S(=O)(=O)N2CCCCC2)sc1NC(=O)c1ccc(F)s1 [Compound 39, N-(3-carbamoyl-5-(piperidin-1-ylsulfonyl)thiophen-2-yl)-5-fluorothiophene-2-carboxamide] to NC(=O)c1cc(S(=O)(=O)N2CCCCC2)sc1NC(=O)c1cncs1 [Compound 62, N-(3-carbamoyl-5-(piperidin-1-ylsulfonyl)thiophen-2-yl)thiazole-5-carboxamide], the EC50 rises from 293 nM to 2180 nM (7.4-fold).

First: NC(=O)c1cc(S(=O)(=O)N2CCCCC2)sc1NC(=O)CCc1ccccc1 [Compound 40, 2-(3-phenylpropanamido)-5-(piperidin-1-ylsulfonyl) thiophene-3-carboxamide]
Second: NC(=O)c1cc(S(=O)(=O)N2CCCCC2)sc1NC(=O)C1(c2ccccc2)CC1 [Compound 57, 2-(1-phenylcyclopropanecarboxamido)-5-(piperidin-1-ylsulfonyl) thiophene-3-carboxamide]
The EC50 of the first is 4.3-fold lower: 574 nM for the first, 2490 nM for the second. The first is the more potent here.

First: NC(=O)c1cc(S(=O)(=O)N2CCCCC2)sc1NC(=O)c1cnn2cccnc12 [Compound 41, N-(3-carbamoyl-5-(piperidin-1-ylsulfonyl)thiophen-2-yl)pyrazolo[1,5-a]pyrimidine-3-carboxamide]
Second: NC(=O)c1cc(S(=O)(=O)N2CCCCC2)sc1NC(=O)c1cnn2ccccc12 [Compound 60, N-(3-carbamoyl-5-(piperidin-1-ylsulfonyl)thiophen-2-yl)pyrazolo[1,5-a]pyridine-3-carboxamide]
The EC50 of the first is 5.2-fold higher: 9840 nM for the first, 1900 nM for the second.

Going from CC(C)(C)n1cc(C(=O)Nc2sc(S(=O)(=O)N3CCCCC3)cc2C(N)=O)cn1 [Compound 43, 1-tert-butyl-N-(3-carbamoyl-5-(piperidin-1-ylsulfonyl)thiophen-2-yl)-1H-pyrazole-4-carboxamide] to NC(=O)c1cc(S(=O)(=O)N2CCCCC2)sc1NC(=O)c1cscn1 [Compound 59, N-(3-carbamoyl-5-(piperidin-1-ylsulfonyl)thiophen-2-yl)thiazole-4-carboxamide], the EC50 falls from 670 nM to 182 nM (3.7-fold). The second is the more potent here.

Going from NC(=O)c1cc(S(=O)(=O)N2CCCCC2)sc1NC(=O)C1CC(F)(F)C1 [Compound 44, 2-(3,3-difluorocyclobutanecarboxamido)-5-(piperidin-1-ylsulfonyl) thiophene-3-carboxamide] to NC(=O)c1cc(S(=O)(=O)N2CCCCC2)sc1NC(=O)c1ccccc1C1CC1 [Compound 52, 2-(2-cyclopropylbenzamido)-5-(piperidin-1-ylsulfonyl) thiophene-3-carboxamide], the EC50 falls from 696 nM to 204 nM (3.4-fold).

Going from CC1(C(=O)Nc2sc(S(=O)(=O)N3CCOCC3)cc2C(N)=O)CC1 [Compound 45, 2-(1-methylcyclopropanecarboxamido)-5-(morpholinosulfonyl) thiophene-3-carboxamide] to CC(C)(C)C(=O)Nc1sc(S(=O)(=O)N2CCOCC2)cc1C(N)=O [Compound 47, 5-(morpholinosulfonyl)-2-pivalamidothiophene-3-carboxamide], the EC50 rises from 1280 nM to 2660 nM (2.1-fold).

NC(=O)c1cc(S(=O)(=O)N2CCOCC2)sc1NC(=O)c1ccccc1F [Compound 46, 2-(2-fluorobenzamido)-5-(morpholinosulfonyl) thiophene-3-carboxamide] and COc1ccccc1C(=O)Nc1sc(S(=O)(=O)N2CCOCC2)cc1C(N)=O [Compound 48, 2-(2-methoxybenzomido)-5-(morpholinosulfonyl) thiophene-3-carboxamide] are within 1.5-fold of each other in EC50: 284 nM for the first, 253 nM for the second.

First: CC(C)(C)c1ccc(C(=O)Nc2sc(S(=O)(=O)N3CCOCC3)cc2C(N)=O)cc1 [Compound 49, 2-(4-tert-butylbenzamido)-5-(morpholinosulfonyl) thiophene-3-carboxamide]
Second: CC(C)(C)c1ccc(C(=O)Nc2sc(S(=O)(=O)N3CCC(F)(F)CC3)cc2C(N)=O)cc1 [Compound 65, 2-(4-tert-butylbenzamido)-5-(4,4-difluoropiperidin-1-ylsulfonyl)thiophene-3-carboxamide]
The EC50 of the first is 1.9-fold lower: 842 nM for the first, 1570 nM for the second. The first is the more potent here.

First: NC(=O)c1cc(S(=O)(=O)N2CCOCC2)sc1NC(=O)c1cc2ccccc2s1 [Compound 50, N-(3-carbamoyl-5-(morpholinosulfonyl)thiophen-2-yl)benzo[b] thiophene-2-carboxamide]
Second: NC(=O)c1cc(S(=O)(=O)N2CCCC2)sc1NC(=O)c1cc2ccccc2s1 [Compound 55, N-(3-carbamoyl-5-(pyrrolidini-1-ylsulfonyl)thiophen-2-yl)benzo[b] thiophene-2-carboxamide]
The EC50 of the first is 8.5-fold lower: 391 nM for the first, 3330 nM for the second. The first is the more potent here.

Going from CC(C)(C)c1ccc(C(=O)Nc2sc(S(=O)(=O)N3CCOCC3)cc2C(N)=O)s1 [Compound 51, 5-tert-butyl-N-(3-carbamoyl-5-(morpholinosulfonyl)thiophen-2-yl) thiophene-2-carboxamide] to CC(C)(C)c1cc(C(=O)Nc2sc(S(=O)(=O)N3CCOCC3)cc2C(N)=O)n[nH]1 [Compound 68, 5-tert-butyl-N-(3-carbamoyl-5-(morpholinosulfonyl)thiophen-2-yl)-1H-pyrazole-3-carboxamide], the EC50 falls from 599 nM to 129 nM (4.6-fold). The second is the more potent here.

First: NC(=O)c1cc(S(=O)(=O)N2CCCCC2)sc1NC(=O)c1cccc(-n2cccn2)c1 [Compound 53, 2-(3-(1H-pyrazol-1-yl)benzamido)-5-(piperidin-1-ylsulfonyl)thiophene-3-carboxamide]
Second: NC(=O)c1cc(S(=O)(=O)N2CCCCC2)sc1NC(=O)c1cccc(-c2cc[nH]n2)c1 [Compound 54, 2-(3-(1H-pyrazol-3-yl)benzamido)-5-(piperidin-1-ylsulfonyl)thiophene-3-carboxamide]
The EC50 of the first is 2.5-fold lower: 1260 nM for the first, 3160 nM for the second. The first is the more potent here.

NC(=O)c1cc(S(=O)(=O)N2CCCC2)sc1NC(=O)c1cc[nH]n1 [Compound 56, N-(3-carbamoyl-5-(pyrrolidin-1-ylsulfonyl)thiophen-2-yl)-1H-pyrazole-3-carboxamide] and NC(=O)c1cc(S(=O)(=O)N2CCOCC2)sc1NC(=O)c1cc[nH]n1 [Compound 63, N-(3-carbamoyl-5-(morpholinosulfonyl)thiophen-2-yl)-1H-pyrazole-3-carboxamide] are within 1.5-fold of each other in EC50: 206 nM for the first, 251 nM for the second.

NC(=O)c1cc(S(=O)(=O)N2CCCCC2)sc1NC(=O)C1(c2ccc(Cl)cc2)CC1 [Compound 61, 2-(1-(4-chlorophenyl)cyclopropanecarboxamido)-5-(piperidin-1-ylsulfonyl) thiophene-3-carboxamide] and NC(=O)c1cc(S(=O)(=O)N2CCCCC2)sc1NC(=O)c1ccc(-c2cccnc2)s1 [Compound 64, N-(3-carbamoyl-5-(piperidin-1-ylsulfonyl)thiophen-2-yl)-5-(pyridin-3-yl)thiphene-2-carboxamide] cannot be ordered by EC50: > 1000 nM for the first, 2160 nM for the second.

First: NC(=O)c1cc(S(=O)(=O)N2CCC(F)(F)CC2)sc1NC(=O)c1ccccc1F [Compound 66, 5-(4,4-difluoropiperidin-1-ylsulfonyl)-2-(2-fluorobenzamido)thiophene-3-carboxamide]
Second: CC(C)(C)C(=O)Nc1sc(S(=O)(=O)N2CCC(F)(F)CC2)cc1C(N)=O [Compound 67, 5-(4,4-difluoropiperidin-1-ylsulfonyl)-2-pivalamidothiophene-3-carboxamide]
The EC50 of the first is 1.6-fold lower: 153 nM for the first, 250 nM for the second. The first is the more potent here.

Compared with CCc1cc(C(=O)Nc2sc(S(=O)(=O)N3CCOCC3)cc2C(N)=O)n[nH]1 [Compound 69, N-(3-carbamoyl-5-(morpholinosulfonyl)thiophen-2-yl)-5-ethyl-1H-pyrazole-3-carboxamide], COc1cc(Nc2ccccc2)ccc1C(=O)Nc1sc(S(=O)(=O)N2CCOCC2)cc1C(N)=O [Compound 70, 2-(2-methoxy-4-(phenylamino)benzamido)-5-(morpholinosulfonyl) thiophene-3-carboxamide] is 6.3-fold higher in EC50: 147 nM for the first, 921 nM for the second.

First: CN(Cc1ccccc1)S(=O)(=O)c1cc(C(N)=O)c(NC(=O)C2(c3ccc4c(c3)OC(F)(F)O4)CC2)s1 [Compound 71, 5-(N-benzyl-N-methylsulfamoyl)-2-(1-(2,2-difluorobenzo[d][1,3]dioxol-5-yl)cyclopropanecarboxamido) thiophene-3-carboxamide]
Second: CN(Cc1ccccc1)S(=O)(=O)c1cc(C(N)=O)c(NC(=O)c2ccccc2F)s1 [Compound 72, 5-(N-benzyl-N-methylsulfamoyl)-2-(2-fluorobenzamido) thiophene-3-carboxamide]
The EC50 of the first is 2.4-fold higher: 797 nM for the first, 326 nM for the second. The second is the more potent here.
